Here are results for eight molecules from article PMC9071946, “In vitro and in silico determination of glutaminyl cyclase inhibitors” (RSC Advances, 2019).

Each structure is given as a SMILES string.

For data set [1], the target named is human glutaminyl cyclase (hQC) (Homo sapiens, UniProt Q16769). The data set can be described thus: hQC inhibition, fluorometric assay with fluorogenic substrate Glu-AMC and pGAPase.
Method: The synthesized compounds were evaluated for hQC inhibition by a fluorometric assay with a fluorogenic substrate, Glu-AMC·HBr (L-glutamine 7-amido-4-methylcoumarin, BACHEM, Switzerland), and an auxiliary enzyme, pyroglutamyl peptidase (pGAPase, 50 units, Qiagen, Germany), as our previously reported.[29] The used buffer consisted of 25 mM HEPES (Sigma), with pH 7.0, adjusted with HCl. […] After incubation in 96-well black plates (Greiner, Austria) for 10 min at 37 °C, the reaction was started by adding 50 μL of hQC solution (0.04 μg mL^−1). The excitation/emission wavelengths at 380/460 nm were correlated with the amount of ACM, the last product of the enzymatic process.
Another data set relates to human QC. The note with it: ref bindingdb.org, cited from earlier work.
On the set-up of data set [2]: method as in PMID 26101580. The note with it: cited from earlier work.
Setting [3] is: IC50 for inhibition of the hQC enzyme, Table 1, HEPES pH 7.0, 37 °C.
Where [4] appears, read: Table 2, from IC50 assumed equal to the inhibition constant ki.
[5] abbreviates: supplement Table S1, compounds 1_x and 3_x.

Chain of human glutaminyl cyclase (hQC) (Q16769 29-361): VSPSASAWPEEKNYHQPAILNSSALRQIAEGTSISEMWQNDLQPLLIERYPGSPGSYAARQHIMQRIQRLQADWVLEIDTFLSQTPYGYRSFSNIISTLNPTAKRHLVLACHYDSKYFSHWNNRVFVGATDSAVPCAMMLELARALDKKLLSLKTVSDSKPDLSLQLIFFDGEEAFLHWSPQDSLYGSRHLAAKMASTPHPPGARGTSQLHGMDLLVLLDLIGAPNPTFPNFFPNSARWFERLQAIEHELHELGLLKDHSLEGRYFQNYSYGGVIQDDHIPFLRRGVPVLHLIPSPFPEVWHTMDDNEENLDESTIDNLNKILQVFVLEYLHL

With `COc1cc2nc(NCCCn3cncc3C)sc2cc1OC` [Compound 1_1], the IC50 (usually the concentration that gives 50% inhibition) in data set [1] (IC50, supplement Table S3) was determined as 305 nM; in data set [1] (setting [3]) it was 300 ± 90 nM. In data set [1] (setting [4]), the ΔGEXP was -8.94 kcal/mol.

In the case of `COc1cc2nc(NCCCn3cncc3C)[nH]c2cc1OC` [Compound 1_2, 5,6-dimethoxy-N-(3-(5-methyl-1H-imidazol-1-yl)propyl)-1H-benzo[d]imidazol-2-amine], the IC50 in data set [1] (IC50, supplement Table S3) came to 107 nM; in data set [1] (setting [3]), 110 ± 30 nM. The ΔGEXP in data set [1] (setting [4]) was -9.57 kcal/mol. Also, the “more potent than 1_1” value in data set [1] (ratio of IC50 values) is given as 2 folds.

For `COc1ccc(Nc2nc(CCn3cncc3C)cs2)cc1OC` [Compound 1_3], the IC50 turned out to be 316 nM in data set [1] (IC50, supplement Table S3) and 320 ± 100 nM in data set [1] (setting [3]). The ΔGEXP in data set [1] (setting [4]) was -8.92 kcal/mol.

For `COc1ccc(Nc2nnc(CCn3cncc3C)o2)cc1OC` [Compound 1_4], the IC50 worked out at 420 nM in data set [1] (IC50, supplement Table S3) and 420 ± 60 nM in data set [1] (setting [3]). Besides, the figures for the ΔGEXP in data set [1] (setting [4]) and in data set [1] (setting [5]) were -8.75 kcal/mol and -8.69 kcal/mol, respectively.

Consider `COC(=O)C(C)NC(=O)C(Cc1ccccc1)NCCCn1cncc1C` (stereo not shown) [Compound 3_1], for which the IC50 in data set [1] (IC50, supplement Table S3) came to 637 nM; in data set [1] (setting [3]), 640 ± 90 nM. The ΔGEXP in data set [1] (setting [4]) is -8.50 kcal/mol; in data set [1] (setting [5]), -8.45 kcal/mol.

Consider `Cc1cncn1CCCNC(Cc1ccccc1)C(=O)NC(C)C(N)=O` (stereo not shown) [Compound 3_3], for which the IC50 was 446 nM in data set [1] (IC50, supplement Table S3) and 450 ± 40 nM in data set [1] (setting [3]). Moreover, the ΔGEXP in data set [1] (setting [4]) is -8.68 kcal/mol; in data set [1] (setting [5]), -8.59 kcal/mol.

Turning to `c1ccc(Cn2ccnc2)cc1` [Compound 77918], in the data set with human QC (supplement Table S1, ligands 1-12), the ΔGEXP was -9.03 kcal/mol. Besides, the Ki (as a rule, the equilibrium dissociation constant of an inhibitor or competing ligand from its target) at human QC (supplement Table S3) was 262 nM.

Regarding `COc1cc(NC(=S)NCCCn2ccnc2)ccc1O[11CH3]` [[^11C]PBD150], in data set [2], the “permeation of the BBB” value is reported as “impossible permeation the BBB”.
